Results reported in patent US6235707A, “Anticoagulant peptidyl-arginine aldehyde derivatives” (Gyogyszerkutato Intezet Kft., priority 1996, dated 2001).

What was measured:
isolated human fXa = biological target: T1, isolated human fXa (Homo sapiens, UniProt P00742); experiment: fXa inhibition in solution, amidolytic method on Bz-Ile-Glu-Gly-Arg-pNA chromogen substrate (Method M6); type: biochemical; conditions: Table 3; isolated human fXa, Bz-Ile-Glu-Gly-Arg-pNA; read-out: B: fXa inhibiting IC50
T1 construct: The isolated active factor (e.g. thrombin, fXa) and its chromogen or fluorogen peptide-amide substrate are reacted; purchased SIGMA
T1 sequence (P00742 235-488 limits assumed): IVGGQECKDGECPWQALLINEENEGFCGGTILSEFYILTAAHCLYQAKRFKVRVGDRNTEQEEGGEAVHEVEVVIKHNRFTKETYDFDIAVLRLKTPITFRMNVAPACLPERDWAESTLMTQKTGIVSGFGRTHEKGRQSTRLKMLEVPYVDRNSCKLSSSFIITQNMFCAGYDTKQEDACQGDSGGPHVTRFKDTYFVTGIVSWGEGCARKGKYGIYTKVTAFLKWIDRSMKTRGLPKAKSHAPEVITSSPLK
T1 sequence (P00742 41-179 partner limits assumed): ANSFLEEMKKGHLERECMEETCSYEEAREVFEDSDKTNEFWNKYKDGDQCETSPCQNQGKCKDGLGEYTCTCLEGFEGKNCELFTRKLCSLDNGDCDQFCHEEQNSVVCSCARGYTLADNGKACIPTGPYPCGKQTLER
Method: (§1) Anticoagulant activity (i.e. inhibition of the proteolytic reactions in the process) is measured by anticoagulant tests, e.g. in the thrombin time (TT), activated partial thromboplastin time (APTT) and prothrombin time (PT) tests [E. J. W. Bovie et al., Mayo Clinic Laboratory Manual of Haemostasis; W. B. Saunders Co., Philadelphia (1971)]. Plasma, inhibited in spontaneous coagulation, e.g. citrate-plasma, is made to coagulate and the required coagulation time is measured. Upon the action of anticoagulants the coagulation time is prolonged proportionally to the inhibition of the reaction(s) in the process. The anticoagulant effect can be characterised by the substance concentration required to prolong the coagulation time twofold compared to the control (IC50). The effect of anticoagulants on individual coagulant proteases is measured by the amidolytic method [R. Lottenberg et al., Methods in Enzymol. 80, 341 (1981); G. Cleason, Blood Coagulation and Fibrinolysis 5, 411 (1994)]. The isolated active factor (e.g. thrombin, fXa) and its chromogen or fluorogen peptide-amide substrate are reacted in the presence or absence of the inhibitor, resp. The enzyme inhibiting action is characterised by the inhibitory constant (IC50) measured during amidolysis.
(§2) The in vitro anticoagulant effects of the compounds of general formula (I) was measured by the prothrombin time (PT), activated partial thromboplastin time (APTT) and thrombin time (TT) tests [D. Bagdy et al., Thromb. Haemost. 67, 325 (1992)]. The fxa-inhibiting effect of the compounds was also determined using the Bz-Ile-Glu-Gly-Arg-pNA chromogen substrate (see method M6).
Determination of Factor Xa Inhibition in Solution on a 96-well Microtitre Plate
a) By means of phosphate buffer (0.1M sodium phosphate and 0.05M sodium chloride, pH=7.4) 1.3 E/ml solution is prepared from human factor Xa (SIGMA), and 0.1-1.0-10 and 100 μg/ml solutions from the peptide inhibitors. The Bz-Ile-Glu-Gly-Arg-pNA substrate is used in distilled water solution ([…]).
b) From the control and the peptide inhibitor solutions (3 parallel samples of each concentration) 30-30 μl aliquots are placed into the wells. 30 μl of factor Xa, 90 μl of buffer and 150 μl of substrate are added to the peptide solution and the extinction is determined after 10 min. at 405 nm. Thereafter the steps are the same as in M2/c.

thrombin = thrombin (Homo sapiens, UniProt P00734); experiment: thrombin time (TT) plasma clotting test; type: biochemical; conditions: Table 3; twofold prolongation compared to control; read-out: A: anticoagulant IC50, TT
Method: as §1
(§3) In the TT test coagulation is initiated by the thrombin added to the citrate plasma. In the system 22 pmol/ml of thrombin is functioning and its inhibition can be measured on the fibrinogen (one of the natural substrates of thrombin) in the presence of plasma components. In the APTT and PT tests the full coagulation process takes place. Depending on the activator fX is activated either by the extrinsic or the intrinsic pathway. The generated fXa activates prothrombin to thrombin which, in turn, triggers plasma coagulation. The coagulation time is prolonged if the enzymes or one of them is inhibited by the inhibitor. In the APTT and PT tests at most 40 pmol/ml Xa can be generated (this is the full amount of factor X present in both systems) while 150 pmol/ml (APTT) and 350 pmol/ml (PT) of thrombin are generated [B. Kaiser et al., Thromb. Res. 65, 157 (1992)].
as §2

citrate plasma [1] = experiment: prothrombin time (PT) plasma clotting test; type: biochemical
Method: as §1, §3, §2

citrate plasma [2] = experiment: activated partial thromboplastin time (APTT) plasma clotting test; type: biochemical; conditions: Table 3; twofold prolongation compared to control; read-out: A: anticoagulant IC50, APTT
Method: as §1, §3, §2

clot-bound fXa = biological target: T2, clot-bound fXa (Homo sapiens, UniProt P00742); experiment: inhibition of plasma clot-bound factor Xa (Methods M1, M2); type: biochemical; conditions: text b187, well below
T2 construct: from tissue; host or cells: clot of recalcified human platelet-rich plasma
T2 sequence (P00742 235-488 limits assumed): as the sequence (P00742 235-488 limits assumed) above
T2 sequence (P00742 41-179 partner limits assumed): as the sequence (P00742 41-179 partner limits assumed) above
Method: Plasma-clot was obtained by recalcificating platelet-rich human plasma, and fibrin gel by clotting human fibrinogen with human thrombin. For the activity measures of fXa and thrombin Z-D-Arg-Gly-Arg-pNA or Tos-Gly-Pro-Arg-pNA substrates were used in agreement with Methods M1-M3.
Preparation of Clots from Human Plasma
a) Platelet-rich plasma is prepared by centrifuging a 9:1 mixture of human blood and 3.8% sodium citrate solution for 5 min. at 240×g.
b) 200 μl platelet-rich plasma and 80 μl 40 mM CaCl2 solution are allowed to stand at room temperature for 1 hour. The thus-formed clot is washed with 6×2 ml of 0.9% NaCl solution with gentle stirring to remove the residual enzymes (thrombin and factor Xa). The washing medium is assayed for thrombin-like activity as follows:
c) To 400 μl of washing medium 100 μl of 1 mM Tos-Gly-Pro-Arg-pNA substrate solution is added, the mixture is incubated for 30 min at 37° C., then the reaction is stopped with 100 μl of 50% acetic acid. From this mixture 150 μl aliquots are applied onto a 96-well microtitre plate and the extinction coefficients are measured at 405 nm (ELISA READER SLT Laborinstrument GmbH, Austria). […]
c) From each reaction vessel 150 μl is applied onto a 96 well microtitre plate and extinction coefficients are measured at 405 nm (ELISA READER SLT Laborinstrument GmbH, Austria). […]

[3] = tested on: New Zealand white rabbits; experiment: ex vivo TT in citrate plasma of rabbits after p.o. dosing; design: species or system rabbit; conditions: p.o. 5 mg/kg, 90 min
Method: (§4) The anticoagulant and platelet aggregation inhibiting effect of the compounds of general formula (I) was studied in New Zealand white rabbits ex vivo according to D. Bagdy et al. [Thromb. Haemost. 67, 357 (1992)]. The compounds were dissolved in buffered isotonic saline solution and administered i.v. (0,04-5.0 mg/kg) or by infusion (0.25-5.0 mg/kg/h) or subcutaneously (0.5-6.0 mg/kg) or p.o. (2.5-20 mg/kg). The effect of the compounds was detectable already within 30 minutes following p.o. administration, peak values were attained after 60-180 minutes and the therapeutic level was maintained dose-dependently for 3→6 hours.
(§5) The in vivo effect of ethoxycarbonyl-3-cyclobutyl-D-alanyl-L-prolyl-L-arginine aldehyde (1) is presented in detail in Tables 6 and 7. The corresponding values of C1 are listed as controls. The compound was administered p.o. in doses of 5 mg/kg. The blood samples drawn from the caudal vein in every 30-60 minutes were analysed. The whole blood clotting time (WBCT) and the inhibition of thrombin-induced blood platelet aggregation (PAI) were determined. The activated partial thromboplastin time (APTT) and the thrombin time (TT) in the citrate plasma obtained from the blood sample were also measured. The APTT and TT values are compiled in Table 6 and the WBCT and PAI values in Table 7.

urokinase (UK) = urokinase (UK) (Homo sapiens, UniProt P00749); experiment: fibrin-plate method, plasmin formation induced by urokinase; type: biochemical; conditions: related to the activity of C1 (1/IC50 = 1)
Source text: (§6) The inhibitory effect of the new compounds of the invention on plasmin (PL) as well as on plasmin formation induced by tissue plasminogen activator (tPA) and urokinase (UK) was examined by the fibrin-plate method [D. Bagdy et al.: Thromb. Haemost. 67, 325 (1992)]. Compounds C1 and C5 served as controls. […] V. Jackson et al.: J. Cardiovasc. Pharmacol. 21, 587 (1993))]. In Table 4 the results obtained with the new compounds 1 and 2 as well as those with controls C1 and C5 are presented as an example.

[4] = tested on: thrombin-induced blood platelet aggregation; experiment: ex vivo inhibition of thrombin-induced blood platelet aggregation (PAI) in rabbits after p.o. dosing; design: species or system rabbit; conditions: p.o. 5 mg/kg
Method: as §4, §5

[5] = C. V. Jackson et al. 1993; cited from earlier work
[6] = biological target: tissue plasminogen activator (tPA) (Homo sapiens, UniProt P00750); experiment: fibrin-plate method, plasmin formation induced by tPA; type: biochemical; conditions: related to the activity of C1 (1/IC50 = 1)
Chain of tissue plasminogen activator (tPA) (P00750 36-562, species assumed): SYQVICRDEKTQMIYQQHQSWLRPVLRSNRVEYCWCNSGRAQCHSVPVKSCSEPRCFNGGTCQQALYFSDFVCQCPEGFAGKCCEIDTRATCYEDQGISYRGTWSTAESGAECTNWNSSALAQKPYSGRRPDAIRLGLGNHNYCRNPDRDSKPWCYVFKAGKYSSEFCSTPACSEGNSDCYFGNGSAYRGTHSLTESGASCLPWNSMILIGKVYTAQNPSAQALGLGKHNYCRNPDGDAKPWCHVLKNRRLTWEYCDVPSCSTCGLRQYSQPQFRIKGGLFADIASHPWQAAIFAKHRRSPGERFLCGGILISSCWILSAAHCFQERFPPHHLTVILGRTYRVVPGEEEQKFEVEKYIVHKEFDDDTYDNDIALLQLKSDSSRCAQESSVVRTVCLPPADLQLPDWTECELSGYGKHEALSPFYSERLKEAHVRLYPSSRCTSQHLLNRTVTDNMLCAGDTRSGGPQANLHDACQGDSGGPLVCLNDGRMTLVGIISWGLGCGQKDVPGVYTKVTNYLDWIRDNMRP
Source text: as §6

plasmin (PL) = plasmin (PL) (Homo sapiens, UniProt P00747); experiment: fibrin-plate method, plasmin; type: biochemical; conditions: related to the activity of C1 (1/IC50 = 1)
Chain of plasmin (PL) (P00747 581-810 limits assumed, species assumed): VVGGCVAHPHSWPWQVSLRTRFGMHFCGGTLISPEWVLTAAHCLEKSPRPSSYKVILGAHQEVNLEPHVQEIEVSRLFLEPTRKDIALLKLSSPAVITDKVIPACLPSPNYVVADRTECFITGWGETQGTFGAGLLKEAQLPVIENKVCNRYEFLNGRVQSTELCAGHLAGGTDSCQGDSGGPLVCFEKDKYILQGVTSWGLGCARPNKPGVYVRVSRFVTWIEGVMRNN
Chain of plasmin (PL) (P00747 97-580 partner limits assumed, species assumed): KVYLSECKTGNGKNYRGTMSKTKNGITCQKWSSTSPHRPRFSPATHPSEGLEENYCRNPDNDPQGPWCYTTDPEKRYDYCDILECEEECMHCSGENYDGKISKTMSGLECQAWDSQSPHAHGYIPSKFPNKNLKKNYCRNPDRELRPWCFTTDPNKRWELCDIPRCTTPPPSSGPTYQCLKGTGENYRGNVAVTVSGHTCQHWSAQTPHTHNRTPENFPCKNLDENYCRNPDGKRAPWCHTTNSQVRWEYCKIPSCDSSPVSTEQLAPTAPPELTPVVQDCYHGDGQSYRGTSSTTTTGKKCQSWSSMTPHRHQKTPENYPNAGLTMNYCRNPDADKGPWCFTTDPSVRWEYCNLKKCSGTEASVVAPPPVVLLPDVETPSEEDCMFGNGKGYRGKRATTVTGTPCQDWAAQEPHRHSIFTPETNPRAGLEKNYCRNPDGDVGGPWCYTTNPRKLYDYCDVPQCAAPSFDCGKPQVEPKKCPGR
Source text: as §6

| SMILES | IC50 (isolated human fXa) [nM] | IC50 (thrombin) [nM] | IC50 (citrate plasma [1]; Table 3, twofold prolongation compared to control, read-out: A: anticoagulant IC50, PT) [nM] | IC50 (citrate plasma [2]) [nM] | IC50 (clot-bound fXa) [nM] | TT relative clotting time [3] | B: relative efficiency, UK (urokinase (UK)) | IC50 (citrate plasma [1]; Table 2, concentration prolonging clotting time twofold, read-out: A: anticoagulation IC50, PT) [nM] | PAI (%), percentual inhibition of platelet aggregation ([4]; 0 min) [%] | PAI (%), percentual inhibition of platelet aggregation ([4]; 30 min) [%] | PAI (%), percentual inhibition of platelet aggregation ([4]; 45 min) [%] | PAI (%), percentual inhibition of platelet aggregation ([4]; 60 min) [%] | PAI (%), percentual inhibition of platelet aggregation ([4]; 90 min) [%] | PAI (%), percentual inhibition of platelet aggregation ([4]; 120 min) [%] | PAI (%), percentual inhibition of platelet aggregation ([4]; 180 min) [%] | PAI (%), percentual inhibition of platelet aggregation ([4]; 240 min) [%] | antifibrinolytic effect in vivo [5] | B: relative efficiency, tPA [6] | B: relative efficiency, PL (plasmin (PL)) |
| --- | --- | --- | --- | --- | --- | --- | --- | --- | --- | --- | --- | --- | --- | --- | --- | --- | --- | --- | --- |
| CC(C)OC(=O)N[C@H](CC1CCC1)C(=O)N1CCC[C@H]1C(=O)N[C@H](C=O)CCCNC(=N)N [Example 3, Isopropoxycarbonyl-3-cyclobutyl-D-alanyl-L-prolyl-L-arginine aldehyde] | 36 | 190 | 1700 | 600 | < 1000 |  |  |  |  |  |  |  |  |  |  |  |  |  |  |
| CN[C@H](Cc1ccccc1)C(=O)N1CCC[C@H]1C(=O)N[C@H](C=O)CCCNC(=N)N [Example C1, D-MePhe-Pro-Arg-H, reference compound] |  |  |  |  |  | 10.50 ± 4.59 | 1.0 | 2930 | 1.0 | 52.8 ± 14.7 | 58.4 ± 15.6 | 54.2 ± 11.6 | 83.2 ± 8.9 | 75.2 ± 12.3 | 47.5 ± 20.9 | 32.2 ± 16.0 | insignificant | 1.0 | 1.0 |
